Structures are written as SMILES.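 Where inhibition never reached the appropriate level, the endpoint shown equals the highest concentration tested. Otherwise, values were interpolated linearly from a five-concentration, 48-hour dose response in 96-well plates. GI50: concentration for 50% inhibition of growth.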 The source made the active and inactive calls. No stated cut-off is given here; in the data, active = GI50 up to about 1.1 µM and inactive = higher.

Among the test systems are OVCAR-3; SN12C; MDA-MB-231; HOP-62; SK-MEL-2; LOX IMVI; HCT-15; MOLT-4; NCI-H460; CCRF-CEM; ACHN; KM12; SF-295; NCI/ADR-RES; OVCAR-5; OVCAR-8; MDA-MB-435; SF-268; COLO 205; UACC-257.
What all share (test): DTP human tumour cell line panel, 48 h

For `COC(=O)Nc1nc2cc(NC(=O)c3cccs3)ccc2[nH]1`, the GI50 is 19.2 µM (inactive) in the test on OVCAR-3; 57.1 µM (inactive) in the test on SN12C; 62.1 µM (inactive) with MDA-MB-231; 84.9 µM (inactive) in the test with HOP-62; 24.9 µM (inactive) with SK-MEL-2; 25.9 µM (inactive) in the test with LOX IMVI. Further, the GI50 in the test with HCT-15 is 23.9 µM; with MOLT-4 it was 33.7 µM (inactive); in the test on NCI-H460, 40 µM (inactive); in the test with CCRF-CEM, 31.3 µM (inactive); in the test with ACHN, > 100 µM (inactive); with KM12, 21.6 µM (inactive). Also, the GI50 with SF-295 is 29.6 µM (inactive); with NCI/ADR-RES, 17.9 µM (inactive); in the test on OVCAR-5, 61.8 µM (inactive); in the test with OVCAR-8, 68.7 µM (inactive); in the test with MDA-MB-435, 8.57 µM (inactive); in the test with SF-268 it was 75.3 µM (inactive). Also, the GI50 with COLO 205 is 29.6 µM (inactive).

With `CC(=N/NC(=S)N1CCCCCC1)/C(C)=N\NC(=S)N1CCCCCC1`, the GI50 was 5.6 µM (inactive) with OVCAR-3; 1.91 µM (inactive) with SN12C; 7.98 µM (inactive) in the test with MDA-MB-231; 4.98 µM (inactive) in the test on HOP-62; 5.2 µM (inactive) with UACC-257; 1.97 µM (inactive) in the test on SK-MEL-2. In addition, the GI50 in the test with LOX IMVI was > 10 µM (inactive); in the test with HCT-15, 4.34 µM; with MOLT-4 it was > 100 µM (inactive); with NCI-H460, 4.38 µM (inactive); in the test with ACHN it was 3.38 µM (inactive); in the test on KM12, 4.59 µM (inactive). For the same compound, the GI50 with SF-295 is 4.93 µM (inactive); in the test on NCI/ADR-RES, 5.25 µM (inactive); with OVCAR-5 it was 7.89 µM (inactive); with OVCAR-8, 15.7 µM (inactive); in the test with MDA-MB-435, 1.83 µM (inactive); with SF-268, 3.45 µM (inactive). Further, in the test on COLO 205, the GI50 is 5.43 µM (inactive).

Consider `Cc1ccc(S[C@@](C=O)(NC(=O)OCc2ccccc2)C(F)(F)F)cc1`, for which the GI50 with OVCAR-3 was 42 µM (inactive); with SN12C, 26.7 µM (inactive); with MDA-MB-231, 19.6 µM (inactive); with HOP-62 it was 29 µM (inactive); in the test with UACC-257, 36.8 µM (inactive); in the test on SK-MEL-2, 25.8 µM (inactive). Further, the GI50 is 21.3 µM (inactive) in the test with LOX IMVI; 22.9 µM in the test on HCT-15; 21.5 µM (inactive) in the test on MOLT-4; 29.9 µM (inactive) in the test on NCI-H460; 23.2 µM (inactive) in the test on CCRF-CEM; 20.8 µM (inactive) in the test on KM12. In addition, the GI50 in the test with SF-295 was 31 µM (inactive); in the test on NCI/ADR-RES it was 21.4 µM (inactive); in the test with OVCAR-5, 23.2 µM (inactive); in the test with OVCAR-8 it was 20.7 µM (inactive); in the test on MDA-MB-435 it was 28.8 µM (inactive); in the test with SF-268, 22.6 µM (inactive). Besides, the GI50 in the test with COLO 205 was 17 µM (inactive).

Turning to `CCCCN(CCCC)CC(O)c1cc(-c2ccc(C(F)(F)F)cc2)nc(-c2ccc(C(F)(F)F)cc2)c1` (stereo not drawn), the GI50 was 94.8 µM (inactive) in the test with OVCAR-3; 26.1 µM (inactive) in the test on SN12C; 15.7 µM (inactive) in the test with MDA-MB-231; 70.8 µM (inactive) with HOP-62; 49.3 µM (inactive) in the test on UACC-257; > 100 µM (inactive) in the test on SK-MEL-2. In addition, the GI50 is 35 µM (inactive) in the test on LOX IMVI; 26.4 µM in the test on HCT-15; > 100 µM (inactive) in the test with MOLT-4; > 100 µM (inactive) in the test with NCI-H460; 50.9 µM (inactive) in the test with CCRF-CEM; > 100 µM (inactive) in the test with ACHN. Also, the GI50 in the test on SF-295 is 26.7 µM (inactive); in the test on NCI/ADR-RES it was > 100 µM (inactive); with OVCAR-5, > 100 µM (inactive); in the test with OVCAR-8, > 100 µM (inactive); with MDA-MB-435 it was 59.6 µM (inactive); with SF-268 it was > 100 µM (inactive). For the same compound, the GI50 in the test with COLO 205 was 79.8 µM (inactive).

Take `c1csc(-c2nn3c(C45CC6CC(CC(C6)C4)C5)nnc3s2)c1`: the GI50 in the test with OVCAR-3, in the test on SN12C, in the test with MDA-MB-231, in the test with HOP-62, in the test on UACC-257 and in the test on SK-MEL-2 was > 100 µM (inactive) each time. Further, the GI50 was > 100 µM (inactive) with LOX IMVI; greater than 100 µM in the test on HCT-15; > 100 µM (inactive) in the test on MOLT-4; > 100 µM (inactive) with NCI-H460; > 100 µM (inactive) in the test on CCRF-CEM; > 100 µM (inactive) in the test with ACHN. Further, the GI50 with SF-295, with NCI/ADR-RES, in the test on OVCAR-5, in the test on OVCAR-8, in the test on MDA-MB-435 and in the test on SF-268 was > 100 µM (inactive) each time. Also, the GI50 in the test with COLO 205 was > 100 µM (inactive).

As for `C(=NCCN1CCOCC1)=NC1CCCCC1`, the GI50 with OVCAR-3, in the test with SN12C, in the test with MDA-MB-231, with HOP-62, in the test with UACC-257 and with SK-MEL-2 was > 100 µM (inactive) throughout. Moreover, the GI50 is > 100 µM (inactive) with LOX IMVI; greater than 100 µM in the test on HCT-15; > 100 µM (inactive) in the test on MOLT-4; > 100 µM (inactive) with NCI-H460; > 100 µM (inactive) with ACHN; > 100 µM (inactive) with KM12. Further, the GI50 in the test with SF-295, in the test with NCI/ADR-RES, in the test on OVCAR-5, in the test on OVCAR-8, in the test with MDA-MB-435 and in the test with SF-268 was > 100 µM (inactive) throughout. In addition, in the test on COLO 205, the GI50 is > 100 µM (inactive).

For `CC(C)c1cc(C(C)C)c(Cl)c(Cl)c1O.CC(C)c1cc(Cl)c(O)c(C(C)C)c1Cl`, the GI50 with OVCAR-3 is 24.5 µM (inactive); with SN12C it was 22.4 µM (inactive); in the test with MDA-MB-231 it was 20.1 µM (inactive); with HOP-62 it was 32.7 µM (inactive); in the test with UACC-257, 20 µM (inactive); with SK-MEL-2, 18.5 µM (inactive). For the same compound, the GI50 in the test with LOX IMVI is 32.3 µM (inactive); in the test with HCT-15, 36.7 µM; with NCI-H460, 30 µM (inactive); with CCRF-CEM it was 37.1 µM (inactive); in the test on ACHN, 23.4 µM (inactive); in the test with KM12, 24.4 µM (inactive). Moreover, the GI50 was 18.7 µM (inactive) with SF-295; 32.8 µM (inactive) in the test with NCI/ADR-RES; 48.3 µM (inactive) in the test with OVCAR-5; 26.7 µM (inactive) in the test on OVCAR-8; 21.4 µM (inactive) with MDA-MB-435; 18.8 µM (inactive) in the test on SF-268. Also, in the test with COLO 205, the GI50 was 20.2 µM (inactive).

`Cc1ccc(S(=O)(=O)NC(=O)Nc2ccc(C(=O)O)c(O)c2)cc1`: the GI50 with OVCAR-3 was > 100 µM (inactive); in the test with MDA-MB-231, > 100 µM (inactive); in the test with HOP-62 it was > 100 µM (inactive); in the test with SK-MEL-2, > 100 µM (inactive); in the test with LOX IMVI, > 100 µM (inactive); in the test with HCT-15, greater than 100 µM. The GI50 with MOLT-4, with NCI-H460, with CCRF-CEM, with ACHN, in the test on KM12 and in the test on SF-295 was > 100 µM (inactive) in each case. Moreover, the GI50 with NCI/ADR-RES, in the test on OVCAR-5, with OVCAR-8, in the test on MDA-MB-435, in the test with SF-268 and with COLO 205 was > 100 µM (inactive) throughout.

Regarding `N#CCCN(CCC#N)c1ccc(/C=C2\N=C(c3ccccc3)N(c3ccccc3)C2=O)cc1`, the GI50 in the test with OVCAR-3, in the test with SN12C, in the test on MDA-MB-231, with HOP-62, in the test on UACC-257 and in the test on SK-MEL-2 was > 100 µM (inactive) in each case. Also, the GI50 in the test on LOX IMVI is 7.21 µM (inactive); with HCT-15, 6.25 µM; in the test on MOLT-4 it was 8.59 µM (inactive); with NCI-H460, 2.1 µM (inactive); with CCRF-CEM it was 2.26 µM (inactive); with ACHN it was > 100 µM (inactive). Moreover, the GI50 with KM12, in the test with SF-295, with NCI/ADR-RES, in the test with OVCAR-5, with OVCAR-8 and with MDA-MB-435 was > 100 µM (inactive) each time. Besides, the GI50 in the test with COLO 205 is 9.38 µM (inactive).

Consider `CO/N=C(\C)c1cccc(Nc2c3ccccc3nc3occc23)c1`, for which the GI50 is 4.72 µM (inactive) in the test on OVCAR-3; 16 µM (inactive) in the test with SN12C; 9.79 µM (inactive) with MDA-MB-231; 6.37 µM (inactive) in the test with HOP-62; 12.5 µM (inactive) in the test on UACC-257; 3.56 µM (inactive) with SK-MEL-2. For the same compound, the GI50 with LOX IMVI was 10.4 µM (inactive); in the test on HCT-15, 6.21 µM; in the test with MOLT-4, 4.63 µM (inactive); in the test with NCI-H460, 5.81 µM (inactive); in the test with CCRF-CEM it was 5.42 µM (inactive); with KM12, 8.81 µM (inactive). Further, the GI50 with SF-295 was 5.46 µM (inactive); in the test on NCI/ADR-RES it was 4.12 µM (inactive); in the test with OVCAR-5, 20.5 µM (inactive); with OVCAR-8, 20 µM (inactive); in the test on MDA-MB-435 it was 2.34 µM (inactive); in the test on SF-268, 11.2 µM (inactive). Besides, the GI50 in the test with COLO 205 is 5.24 µM (inactive).

Regarding `CCOC(=O)CCC(NC(=O)c1ccc(NCc2ccc3nc(OC)c(OC)nc3c2)c2ccccc12)C(=O)OCC` (stereo not drawn), the GI50 with OVCAR-3 was 94.2 µM (inactive); in the test on SN12C, > 100 µM (inactive); in the test on MDA-MB-231, 71.1 µM (inactive); in the test on HOP-62, 25.9 µM (inactive); in the test on UACC-257 it was > 100 µM (inactive); in the test on SK-MEL-2 it was > 100 µM (inactive). Further, the GI50 is > 100 µM (inactive) with LOX IMVI; greater than 100 µM in the test on HCT-15; > 100 µM (inactive) in the test with MOLT-4; > 100 µM (inactive) in the test on NCI-H460; 55.8 µM (inactive) with ACHN; > 100 µM (inactive) in the test on KM12. Besides, the GI50 in the test with SF-295 is 36.2 µM (inactive); in the test on NCI/ADR-RES it was > 100 µM (inactive); in the test with OVCAR-5 it was > 100 µM (inactive); in the test on OVCAR-8 it was 57.5 µM (inactive); in the test on MDA-MB-435 it was > 100 µM (inactive); in the test on SF-268, 42.7 µM (inactive). In addition, the GI50 in the test on COLO 205 was > 100 µM (inactive).

What is called GI50 is the concentration that inhibits growth by half.

These data come from ChEMBL document CHEMBL1201862, “PubChem BioAssay data set” (2004).
